Laboratory results from patent US8377905B2, “Stable crystal of 1-(2′-cyano-2′-deoxy-β-D-arabinofuranosyl)cytosine monohydrochloride” (Delta-Fly Pharma, Inc., priority 2009, dated 2013).

Key:
[1] = tested on: human or mouse tumor cells; details: Patent Document 1, Non-Patent Documents 1 and 2; cited from earlier work
[2] = Patent Document 1, Non-Patent Documents 1 and 2; cited from earlier work
[3] = Stability test: content of total analogues by HPLC after storage; type: physicochemical; details: for Total analogues (%), amount of increase from the initial value: 30 days vs initial; for Total analogues (%), 10 days: storage 10 days; for Total analogues (%), 18 days: storage 18 days; for Total analogues (%), 30 days: storage 30 days; for Increase in the total analogues: stability test under various conditions (humidification and exposure), 30 days
Method: (§1) The type I and type II crystal powders were respectively spread uniformly on a glass petri dish, and an aluminum foil (or a transparent resin film, for the purpose of storage under light exposure conditions) which was appropriately perforated as vent holes therein was used as a lid, to prepare test samples. These samples were respectively stored for 30 days under four kinds of conditions such as [60° C.], [40° C./relative humidity (RH) 75%], [25° C./relative humidity (RH) 60%, light exposure 2000 lx·hr], and [25° C./relative humidity (RH) 60%, light shading], and then the samples were tested using high performance liquid chromatography (HPLC) and powder X-ray diffraction (XRD).
For the HPLC analysis, 22.9 mg of the sample was dissolved in 10 mL of 0.01 mol/L hydrochloric acid, and then the content of analogues in the crystal was measured under the following conditions.
Column: Synergi Hydro-RP 80A Phenomenex (φ4.6 mm×25 cm, 4 μm); temperature 25° C.
Mobile phase: 2.05 g of potassium dihydrogen phosphate is dissolved in 3000 mL of water, and phosphoric acid is added to the solution to adjust the pH to 3.0. The mobile phase is prepared by adding 60 mL of methanol to 2940 mL of the solution liquid.
Flow rate: Approximately 1.0 mL/min
Detector: Ultraviolet absorptiometer (measurement wavelength 254 nm)
Standard Sample: • 1-(2′-cyano-2′-deoxy-β-D-arabinofuranosyl)cytosine monohydrochloride
The term “total analogues” refers to the substances detected other than 1-(2′-cyano-2′-deoxy-β-D-arabinofuranosyl)cytosine monohydrochloride), and the term “total analogues (%)” refers to the content ratio of total analogues with respect to the standard sample.

[4] = Stability test: change of crystal form by powder X-ray diffraction after storage; type: physicochemical; details: 30 days
Excerpt: as §1, with “The powder X-ray diffraction data were obtained by irradiating the crystal with CuKα ray (1.541 Å) using an X-ray diffraction apparatus (trade name: PW3050, manufactured by Koninklijke Philips Electronics N.V.), and detecting the angles using a vertical goniometer. The type” for “The type”, “diffraction (XRD). For powder X-ray diffraction (XRD), the analysis was carried out as described above.” for “diffraction (XRD).”

[5] = Heating of the crystal at 80° C. for 2 hours, crystal form by melting point and powder X-ray diffraction; type: physicochemical; details: heated at 80° C. for 2 hours
[6] = 25° C./60% RH/2000 lx, listed as I, monohydrochloride
[7] = 25° C./60% RH/Light shading, listed as I, monohydrochloride
[8] = 40° C./75% RH, listed as I, monohydrochloride
[9] = 60° C., listed as I, monohydrochloride
[10] = 25° C./60% RH/2000 lx, listed as II, monohydrochloride
[11] = 25° C./60% RH/Light shading, listed as II, monohydrochloride
[12] = 40° C./75% RH, listed as II, monohydrochloride
[13] = 60° C., listed as II, monohydrochloride

## Cl.N#CC1C(O)[C@@H](CO)O[C@H]1n1ccc(N)nc1=O (stereo partly drawn) [compound (1), 1-(2′-cyano-2′-deoxy-β-D-arabinofuranosyl)cytosine monohydrochloride]
[1]
  In vitro suppressive effect for proliferation of tumor cells: suppressive effect for proliferation
[2]
  Anti-tumor activity in vivo: excellent anti-tumor activity

## Cl.N#C[C@H]1[C@H](O)[C@@H](CO)O[C@H]1n1ccc(N)nc1=O [type I crystal, 1-(2′-cyano-2′-deoxy-β-D-arabinofuranosyl)cytosine monohydrochloride]
[3]; [6]
  Total analogues (%), amount of increase from the initial value: 0.06%
  Total analogues (%), initial: 0.07%
  Total analogues (%), 10 days: 0.09%
  Total analogues (%), 18 days: 0.09%
  Total analogues (%), 30 days: 0.13%
[3]; [7]
  Total analogues (%), amount of increase from the initial value: 0.00%
  Total analogues (%), initial: 0.07%
  Total analogues (%), 10 days: 0.07%
  Total analogues (%), 18 days: 0.06%
  Total analogues (%), 30 days: 0.07%
[3]; [8]
  Total analogues (%), amount of increase from the initial value: −0.02%
  Total analogues (%), initial: 0.07%
  Total analogues (%), 10 days: 0.07%
  Total analogues (%), 18 days: 0.06%
  Total analogues (%), 30 days: 0.05%
[3]; [9]
  Total analogues (%), amount of increase from the initial value: 0.00%
  Total analogues (%), initial: 0.07%
[3]; 60° C.
  Total analogues (%), 10 days: 0.06%
  Total analogues (%), 18 days: 0.07%
  Total analogues (%), 30 days: 0.07%
[3]; conclusion from the stability test and crystal form conversions
  Stability of the crystal form (overall conclusion): superior stability as compared with the type II crystal or the type III crystal
[3]
  Increase in the total analogues: not recognized
[4]; 25° C./60% RH/2000 lx
  Change of crystal form from the initial value: No change
[4]; 25° C./60% RH/Light shading
  Change of crystal form from the initial value: No change
[4]; [8]
  Change of crystal form from the initial value: No change
[4]; 60° C.
  Change of crystal form from the initial value: No change

## Cl.N#CC1C(O)[C@@H](CO)O[C@H]1n1ccc(N)nc1=O (stereo partly drawn) [type II crystal, 1-(2′-cyano-2′-deoxy-β-D-arabinofuranosyl)cytosine monohydrochloride]
[3]; [10]
  Total analogues (%), amount of increase from the initial value: 0.32%
  Total analogues (%), initial: 0.06%
  Total analogues (%), 10 days: 0.15%
  Total analogues (%), 18 days: 0.23%
  Total analogues (%), 30 days: 0.38%
[3]; [11]
  Total analogues (%), amount of increase from the initial value: 0.03%
  Total analogues (%), initial: 0.06%
  Total analogues (%), 10 days: 0.06%
  Total analogues (%), 18 days: 0.07%
  Total analogues (%), 30 days: 0.09%
[3]; [12]
  Total analogues (%), amount of increase from the initial value: 0.10%
  Total analogues (%), initial: 0.06%
  Total analogues (%), 10 days: 0.06%
  Total analogues (%), 18 days: 0.08%
  Total analogues (%), 30 days: 0.16%
[3]; [13]
  Total analogues (%), amount of increase from the initial value: 0.01%
  Total analogues (%), initial: 0.06%
[3]; 60° C.
  Total analogues (%), 30 days: 0.07%
[3]
  Increase in the total analogues: not recognized
[4]; 25° C./60% RH/2000 lx
  Change of crystal form from the initial value: No change
[4]; [12]
  Change of crystal form from the initial value: Changed (II → I)
[4]; 40° C./75% RH, monohydrochloride
  Change of crystal form from the initial value: converted to the type I crystal

## Cl.N#CC1C(O)[C@@H](CO)O[C@H]1n1ccc(N)nc1=O (stereo partly drawn) [type III crystal, 1-(2′-cyano-2′-deoxy-β-D-arabinofuranosyl)cytosine monohydrochloride]
[5]
  Change of crystal form on heating: converted to the type I crystal
